Data as given in PMC12323621, “Exploring the antimicrobial activity of pantothenamides against uropathogenic Escherichia coli” (Microbiology Spectrum, 2025).
In brackets after ≈: the same amount, converted by molar mass.

Tests used:
UPEC strain CFT073 [1] = system: UPEC strain CFT073; set-up: method as in PMID 37107054; settings: cited from earlier work
UPEC strain CFT073 [2] = system: UPEC strain CFT073; set-up: method as in PMID 37107054; settings: 1 combined with BAP; cited from earlier work
[3] = Stability in mouse plasma; format: in vitro ADME; settings: for stability in mouse plasma: n = 3
Protocol: Stability studies were conducted in mouse liver microsomes, mouse liver tissue homogenate, and CD1 mouse plasma as previously described with minor modifications ([54][–][56]). Briefly, for Phase I mouse liver microsome stability, reactions were carried out with 200 mM potassium phosphate buffer, pH 7.4, with or without an NADPH-regenerating system (1.3 mM NADPH, 3.3 mM glucose 6-phosphate, 3.3 mM MgCl2, 0.4 U/mL glucose-6-phosphate dehydrogenase, and 50 µM sodium citrate). Reactions, in triplicate, were initiated by the addition of liver microsomes to the incubation mixture (compound final concentration was 1 µM; 0.2 mg/mL microsomes) and incubated at 37°C for the desired incubation time. For liver stability, the tissue homogenate was prepared by washing tissues with diluted 10-fold 0.1 M potassium phosphate buffer and homogenized using a probe sonicator over ice. To evaluate the stability of the drugs over time, each of the crude homogenates was aliquoted to 1 mL and then spiked with a final assay concentration of 10 µM of each drug, followed by incubation in an orbital shaker at 37°C for 1 h (in triplicate). For plasma stability, 1 mL of plasma was spiked with 10 µM of each drug, followed by incubation in an orbital shaker at 37°C for 1 h (in triplicate). Samples from each metabolism study were quenched with 3× volume of acetonitrile containing internal standard (losartan: 0.5 µM) at the desired incubation times. […] Samples were vortex-mixed for 30 s and centrifuged at 10,000 × g for 10 min at 4°C. Compound disappearance over time was monitored using a Dionex ultra-high-performance liquid chromatography system consisting of an analytical pump and an autosampler coupled with Q Exactive Focus orbitrap mass spectrometer (Thermo Fisher Scientific Inc., Waltham MA). […] The mobile phase used was composed of 0.1% formic acid in water and 0.1% formic acid in acetonitrile with gradient elution. The total run time for each analyte was 5 min.
The mass spectrometer was operated with a HESI ion source in positive ionization mode where compounds were identified in the full scan mode (from m/z 75.00–1125.00) and controlled by the Xcalibur software 4.0.27.13 (Thermo Scientific). Data were acquired using Xcalibur software. Drugs were identified in the full-scan mode (from m/z 75.00 to 1125.00) by comparing t = 0 samples with t = 30 or 60 min samples, and structures were proposed based on the accurate mass information. The percentage of compound remaining for pantothenamides 1, 6, and 7 was determined from the analyte/internal standard (IS) area ratios obtained at t = 30 or 60 min relative to the mean ratios obtained at t = 0 min and calculated using equation 1:
% Remaining=(Peak area of Analyte/Preak area of ISat t=30 or 60 min/MeanPeak area of Analyte/Peak area of ISat t=0 min)×100

serum pantetheinases = settings: cited from earlier work
mammalian cells = settings: cited from earlier work

SMILES	fold drop in potency in urine versus MOPS-glycerol (UPEC strain CFT073 [1]; UPEC CFT073)	MIC in commercial pooled human urine (UPEC strain CFT073 [1]; UPEC, commercial pooled human urine)	interaction with BAP against UPEC in urine (UPEC strain CFT073 [2])	remaining at 1 h, 10 µM ([3]; CD1, mouse, plasma, 1 h, 10 µM compound, 37°C)	stability in mouse plasma [3]	stability in the presence of serum pantetheinases (serum pantetheinases)	toxicity to mammalian cells (mammalian cells)	% remaining in mouse plasma ([3]; 1 h, 10 µM compound, 37°C)
CCCCCNC(=O)CCNC(=O)[C@H](O)C(C)(C)CO [compound 1, N-pentylpantothenamide, reference compound]	≥ 30 fold	156 µM (≈ 45 µg/mL)	synergy	< 1%	unstable			
CCCCCNC(=O)CNC(=O)[C@H](O)C(C)(C)CO [compound 6, N5-α-pantothenamide]					good stability	stable	non-toxic	no degradation
